Assay: gradient 5% acetonitrile 3 min, to 50% in 2 min, to 85% in 15 min, held 3 min, 100 µL/min
Conditions: column: Zorbax Extend-C18 2.1 x 50 mm; eluents: water / acetonitrile, 0.1% formic acid
Outline: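 Retention time was recorded from adduct peaks, which were picked computationally and each inspected manually. Pure standards ran in mixtures of ~100 molecules on HPLC coupled to a quadrupole time-of-flight mass spectrometer, in positive and negative ionization mode, through a Zorbax Extend-C18 column (2.1 × 50 mm, 1.8 μm) at 100 μL/min. Eluents were water and acetonitrile, each with 0.1% formic acid.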

SMILES | RP-LC retention time
COc1ccc(OC)c(-c2cc(C(=O)NCc3nc(C)no3)[nH]n2)c1 | 662 s
COc1ccc(CC(=O)N2CCC(Nc3ncnc4c3CCC4)C2)cc1 (stereo unspecified) | 595 s
O=C(NCc1cccc(F)c1)N1CCC(Nc2cccnc2)C1 (stereo unspecified) | 606 s
COCC(=O)NCC12CCCC=C1NC(=O)CC2 (stereo unspecified) | 605 s
CC(C)c1noc(C2CCCN(S(C)(=O)=O)CCC(=O)NCC2)n1 (stereo unspecified) | 656 s
CCCN(CC1CCOC1)C(=O)c1cc(Cl)ccc1F (stereo unspecified) | 844 s
COC(=O)c1ccc2c(=O)n(Cc3ccc(OC)cc3)c(N3CCOCC3)nc2c1 | 943 s
Cc1cc2c(cc1S(=O)(=O)N1CCCC1C(=O)NC1CCCCCCC1)OCC(=O)N2 (stereo unspecified) | 834 s
N#Cc1ccc(-c2csc(NC(=O)c3ccc(Cl)cc3)n2)cc1 | 1140 s
CCOC(=O)C1=C(CN2CCN(C)CC2)NC(=O)NC1c1cccc(OC)c1OC (stereo unspecified) | 595 s
CCOC(=O)N1CCc2nc(NC(=O)c3ccc([N+](=O)[O-])s3)sc2C1 | 792 s
O=C(c1ccc(OCC2CCN(C(=O)c3ccoc3)CC2)cc1)N1CCOCC1 | 697 s
O=C(C1CCCO1)N1CCCn2nc(-c3cccs3)cc2C1 (stereo unspecified) | 689 s
CCOc1ccc(Br)cc1C(=O)N1CCNC(=O)C1CC(=O)OC1CCCCC1 (stereo unspecified) | 876 s
CCCNc1nccn(C(C)C)c1=O | 544 s
COC(=O)CCNC(=O)c1cc2c(=O)n(CC(C)C)c3ccccc3n2n1 | 828 s
COc1ccc(-c2nc3cnccn3c2Nc2ccc(C(=O)NCCN(C)C)cc2)cc1 | 586 s
CCCCCn1c(=O)c2ccccc2n(Cc2nc(-c3ccccc3)no2)c1=O | 1240 s
O=C(Cn1c(-c2cccs2)cc2cc(F)ccc21)NCCCN1CCOCC1 | 671 s

SMILES | RP-LC retention time
COc1ccc(-c2nc3cnccn3c2NCCC(=O)N2CCN(C(C)C)CC2)cc1 | 565 s
COCCNC(=O)c1nnn(-c2ccc(F)cc2)c1-c1ccncc1 | 663 s
CCOc1ccc(C(=O)NC2(c3nc(C(C)C)no3)CCCCC2)cc1OCC | 1060 s
O=C(Nc1nc2ccccc2s1)c1ccc([N+](=O)[O-])cc1Cl | 877 s
Cc1nnc2cc(N3CCN(C(=O)Nc4ccc(F)c(Cl)c4)CC3)cnn12 | 658 s
Cc1cc(C)n(CCNC(=O)CN2CCN(c3ccc4c(c3)OCCO4)C2=O)n1 | 616 s
O=C(CSc1ccc(N2CCOCC2)nn1)Nc1ccc(F)cc1F | 669 s
COc1ccc(CN2C[C@@H]3C(=O)N(CCCN4CCCC4=O)C(=O)[C@@H]3C2)c(OC)c1 | 598 s
O=c1[nH]c2ccc(NCc3c(F)cccc3Cl)cc2[nH]1 | 636 s
COc1ncc(C(=O)NCc2ccc(Cl)cc2)cn1 | 751 s
CCOC(=O)c1noc2nc(C)nc(Nc3cccc(Cl)c3)c12 | 1200 s
COc1ccc(-c2noc(CN3N=NC4C(=O)N(c5cccc(Cl)c5)C(=O)C43)n2)c(OC)c1 (stereo unspecified) | 912 s
COCCNS(=O)(=O)c1cc(-c2[nH]ncc2C(=O)N2CCCC2)oc1C | 591 s
Cc1ccc(-c2noc(Cc3nnc(-c4ccc(C)c(C)c4)o3)n2)cc1 | 1200 s
COc1ccc(-n2c(=O)c(C(=O)NCc3cc(F)cc(F)c3)c(O)c3cccnc32)cc1 | 1170 s
CN1C(=O)c2[nH]nc(-c3ccc(F)cc3)c2C1c1cccc(O)c1 (stereo unspecified) | 687 s
O=C(CSc1nc(-c2cccc([N+](=O)[O-])c2)cs1)N1CCOCC1 | 756 s
CCc1ccc(-c2noc(Cn3cnc4c(cnn4-c4cc(Cl)ccc4C)c3=O)n2)cc1 | 1210 s

Now from value to compound:

RP-LC retention time | SMILES
823 s | CC(C)N1C(=O)c2cccnc2Sc2cc(NC(=O)Cc3ccsc3)ccc21
1410 s | COc1ccccc1N1CCN(S(=O)(=O)c2cc(-c3nc(C(C)C)cs3)sc2C)CC1
981 s | CCOC(=O)c1ccc(NC(=O)c2cc3c(=O)n(C)c4ccccc4n3n2)cc1
788 s | CC(C)(C)NC(=O)N1CCC2(CC1)CN(c1ccccc1)C2=O
673 s | O=C(Nc1ccccc1F)NC1CCN(C(=O)C2CC2)C1 (stereo unspecified)
626 s | Cn1cc(S(=O)(=O)N2CCC(C(=O)N3CCOCC3)CC2)cc1C(=O)N1CCCC1
1100 s | COc1ccc(CN2C=C(C(=O)OCc3nc(-c4ccccc4)no3)C(C)=NS2(=O)=O)cc1
978 s | COc1ccc(NC(=O)N2c3ccccc3CC2c2nc(C3CC3)no2)c(C)c1 (stereo unspecified)
1090 s | CCOC(=O)c1cc(S(=O)(=O)N2CCN(c3cccc(C)c3)C(C)C2)c(C)n1C (stereo unspecified)
884 s | Cc1csc(-c2ccc(N3CCN(C(=O)c4ccccc4Br)CC3)nc2)n1
735 s | CC(C)NC(=O)C1CCCN(C(=O)Nc2ccc(NC(=O)Nc3ccccc3F)cc2)C1 (stereo unspecified)
877 s | O=C(Nc1ccc(Cl)cc1)C1CCCN(c2ncnc3c2nc2n3CCCCC2)C1 (stereo unspecified)
605 s | O=C(c1c(-c2ccccc2)nnc2ccccc12)N1CCN(c2ccccn2)CC1
712 s | CCc1ccccc1NC(=O)Nc1ccc2nnc(C)n2c1
828 s | O=C(O)c1ccc(Nc2nc(-c3ccc(Cl)cc3Cl)nc3ccccc23)cc1
952 s | COc1ccc(Cc2cnc(NC(=O)C3COc4ccccc4C3)s2)cc1 (stereo unspecified)
817 s | Cc1ccc(CNC(=O)c2cccc(-c3cnc(N4CCCC4)nc3)c2)o1
828 s | Cc1ccc(NS(=O)(=O)c2cc3c(s2)CCN(C(=O)C2CC2)C3)c(F)c1
753 s | COc1ccc(NC(=O)N2CCC(n3c(-c4ccco4)nc4cccnc43)C2)cc1Cl (stereo unspecified)
814 s | Cc1cccc(-c2nnc(-c3nc(NCCCN4CCCC4=O)c4ccccc4n3)o2)c1
917 s | Cc1cc(C)n(Cc2nc(-c3ccc(NC(=O)Cc4ccc(F)cc4)cc3)oc2C)n1
754 s | CC(=O)Nc1ccc(NC(=O)C2CCN(S(=O)(=O)c3c(C)nn(-c4ccccc4)c3C)CC2)cc1
873 s | COc1cc(OC)cc(C(=O)Nc2nc(C(=O)NC(C)c3ccccc3)cs2)c1 (stereo unspecified)
604 s | CCc1cc(N2CCN(C(=O)c3ccccc3)CC2)nc2nnc(C)n12
649 s | O=C(NCC1CCCO1)C1CCN(c2nnc(-c3ccccc3)o2)CC1 (stereo unspecified)
760 s | O=C(Cc1ccc([N+](=O)[O-])cc1)NC1CC(=O)N(c2ccc(Cl)cc2)C1 (stereo unspecified)
1010 s | Cc1ccc(NC(=O)N2CCc3c(c(-c4nnc(-c5ccc(F)cc5)o4)nn3C)C2)cc1Cl
592 s | CCOC(=O)c1ccc(S(=O)(=O)NCCCn2nc(-c3ccncc3)ccc2=O)cc1
852 s | O=C(Nc1ccc(N2CCOCC2)cc1)C1CCCN(c2nccnc2Oc2ccccc2)C1 (stereo unspecified)

From the METLIN SMRT retention time set (Domingo-Almenara et al. 2019)
